12 molecules from the Kinase Knowledgebase extract (Sharma et al. 2016) can be followed below.

The structures appear in SMILES notation.

EGFR, sequence (P00533 whole entry, looked up): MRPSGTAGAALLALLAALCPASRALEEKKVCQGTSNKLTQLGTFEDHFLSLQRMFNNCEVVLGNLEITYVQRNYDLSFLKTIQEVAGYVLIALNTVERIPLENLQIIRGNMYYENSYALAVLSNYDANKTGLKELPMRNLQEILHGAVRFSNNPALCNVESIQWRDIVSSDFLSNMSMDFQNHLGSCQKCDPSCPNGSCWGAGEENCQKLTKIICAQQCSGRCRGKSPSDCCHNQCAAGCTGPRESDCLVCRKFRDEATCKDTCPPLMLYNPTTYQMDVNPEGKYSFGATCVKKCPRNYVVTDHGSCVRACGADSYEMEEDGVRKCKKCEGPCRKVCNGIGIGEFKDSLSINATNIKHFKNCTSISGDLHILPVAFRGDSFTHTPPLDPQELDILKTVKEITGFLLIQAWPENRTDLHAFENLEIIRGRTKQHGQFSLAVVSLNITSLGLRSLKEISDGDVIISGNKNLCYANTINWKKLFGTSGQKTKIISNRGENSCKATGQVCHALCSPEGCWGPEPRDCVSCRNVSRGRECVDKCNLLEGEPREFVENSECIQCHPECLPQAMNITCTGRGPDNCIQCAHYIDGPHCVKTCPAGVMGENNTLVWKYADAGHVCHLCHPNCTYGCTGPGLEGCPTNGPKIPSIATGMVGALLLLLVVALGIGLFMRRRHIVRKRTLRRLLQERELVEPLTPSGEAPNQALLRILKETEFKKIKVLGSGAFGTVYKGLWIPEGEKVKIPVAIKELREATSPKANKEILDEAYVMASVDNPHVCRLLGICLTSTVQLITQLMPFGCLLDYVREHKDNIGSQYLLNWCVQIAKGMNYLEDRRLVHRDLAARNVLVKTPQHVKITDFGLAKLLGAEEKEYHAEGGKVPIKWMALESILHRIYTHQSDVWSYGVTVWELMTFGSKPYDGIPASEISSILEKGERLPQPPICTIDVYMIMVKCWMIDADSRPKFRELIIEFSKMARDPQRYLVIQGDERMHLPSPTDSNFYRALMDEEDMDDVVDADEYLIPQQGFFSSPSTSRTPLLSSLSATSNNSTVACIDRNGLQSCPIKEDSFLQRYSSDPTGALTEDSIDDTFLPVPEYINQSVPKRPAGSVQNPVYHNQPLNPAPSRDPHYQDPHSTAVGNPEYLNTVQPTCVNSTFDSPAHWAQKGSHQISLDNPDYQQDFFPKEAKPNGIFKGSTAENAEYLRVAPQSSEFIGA
EGFR (murine), sequence (P00533 whole entry, looked up): as above

The first test has as its target EGFR (UniProt P00533).
Settings: not given
`O=C1Nc2ccccc2/C1=C1\CCc2cc(Br)ccc21` yielded a concentration for half-maximal inhibition (IC50) of more than 100 µM. In the case of `COc1ccc2c(c1)C(CC(=O)O)C/C2=C1/C(=O)Nc2ccccc21` (centres undefined), the IC50 is more than 100 µM. Consider `COc1ccc2c(c1)/C(=C1\C(=O)Nc3ccccc31)CC2`, for which the 50% inhibitory concentration (IC50) was more than 100 µM. Consider `COc1cc2c(cc1OC)/C(=C1\C(=O)Nc3ccccc31)CC2`, for which the half-inhibitory concentration (IC50) was more than 25 µM. In turn, `O=C1Nc2ccccc2/C1=C1\CCc2cc(N3CCCCC3)ccc21` registered an IC50 of more than 100 µM. `O=C1Nc2ccccc2/C1=C1\CCc2cc(Cl)ccc21` yielded an IC50 of more than 100 µM. In turn, `CN(C)c1ccc2c(c1)CC/C2=C1/C(=O)Nc2ccccc21` had an IC50 of more than 100 µM. On to `COc1ccc2c(c1)CC/C2=C1/C(=O)Nc2ccccc21`, for which the IC50 is more than 100 µM.

`Nc1ccc2c(c1)CC/C2=C1/C(=O)Nc2ccccc21` showed an IC50 of more than 100 µM. Turning to `O=C1Nc2ccccc2/C1=C1\CCc2ccccc21`, the half-inhibitory concentration (IC50) is more than 100 µM. The molecule `CC1C/C(=C2/C(=O)Nc3ccccc32)c2ccccc21` (centres undefined) displayed an IC50 of more than 100 µM. With `Cc1cccc2c1CC/C2=C1/C(=O)Nc2ccccc21`, the IC50 is more than 100 µM.

Another test concerns the target EGFR (murine) (UniProt P00533). To be noted: nih3t3/c7.
In turn, `COc1ccc2c(c1)C(CC(=O)O)C/C2=C1/C(=O)Nc2ccccc21` (centres undefined) registered an IC50 of more than 100 µM. The molecule `O=C1Nc2ccccc2/C1=C1\CCc2ccccc21` displayed an IC50 of more than 100 µM.
